# According to publication PMC3388095, “Fluorophore Labeled Kinase Detects Ligands That Bind within the MAPK Insert of p38α Kinase” (PLoS ONE, 2012):
# Where “and” joins values, the source holds several entries; their conditions need not be identical. Identical values can stand only once.
# Assays:
# [1] = tested on: panel of 95 different kinases; assay: Kinase selectivity profile, 33P-ATP filter-binding assay (whole panel); format: biochemical; conditions: 10 µM; 95 kinases
# Procedure: Figure 5 Kinase selectivity profile of 1b. Compound 1b was profiled against a selected panel of 95 different kinases at a concentration of 10 µM employing a radioactive (^33P-ATP) filter-binding assay (National Centre for Protein Kinase Profiling, Dundee). The numbers represent the remaining kinase activity in %. […]
# p38α MAPK insert = target: T1, p38α MAPK insert (Homo sapiens, UniProt Q16539, C119S/C162S/S252C); assay: FLiK direct binding assay, acrylodan-labeled p38α (S252C) MAPK insert / lipid binding site; conditions: binding to p38α MAPK insert; ratiometric acrylodan emission; each concentration in triplicate
# T1 construct: His-tag with PreScission Protease cleavage site (N); made in house; host or cells: E. coli BL21(DE3) Codon+RIL
# T1 sequence (Q16539 whole entry C119S/C162S/S252C): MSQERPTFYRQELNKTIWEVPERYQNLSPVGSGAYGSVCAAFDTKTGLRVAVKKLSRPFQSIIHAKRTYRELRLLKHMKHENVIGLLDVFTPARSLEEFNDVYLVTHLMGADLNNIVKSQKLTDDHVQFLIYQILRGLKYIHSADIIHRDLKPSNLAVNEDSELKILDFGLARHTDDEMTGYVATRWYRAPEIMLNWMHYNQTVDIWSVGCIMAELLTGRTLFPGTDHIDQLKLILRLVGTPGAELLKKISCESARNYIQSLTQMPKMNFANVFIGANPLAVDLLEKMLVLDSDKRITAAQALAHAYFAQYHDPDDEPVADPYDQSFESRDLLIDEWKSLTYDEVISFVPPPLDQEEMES
# Procedure: The human p38α kinase construct containing the mutations required for specific labeling (C119S/C162S/S252C) as well as wild type p38α were cloned into a pOPINF vector and transformed as an N-terminal His-tag construct with a PreScission Protease cleavage site into BL21(DE3) Codon+RIL E. coli. Protein expression, purification, fluorophore labeling and verification of mono-labeling of the kinase were performed essentially as described previously. Labeling of the mutant p38α protein with thiol-reactive acrylodan was carried out by adding a 1.5∶1 molar excess of the fluorophore (dissolved in DMSO) to the purified protein in 50 mM Hepes Buffer (pH 7.0). The mixture was allowed to react in the dark overnight at 4°C. Unreacted acrylodan was subsequently removed by three cycles of buffer exchange into FLiK Measurement Buffer (50 mM Hepes Buffer, pH 7.4+200 mM NaCl) using a 10k-MWCO Centricon. The protein was concentrated to ∼200 μM, aliquoted and frozen at −80°C. Mono-labeling of the protein was verified by ESI-MS as described previously, [24].
# Characterization of the fluorescence response of MAP insert-labeled p38α was carried out as described previously for p38α labeled on the activation loop. […] Briefly, a polystyrene cuvette containing a suspension of 50 nM acrylodan-labeled p38α in FLiK Buffer was excited at 386 nm and emission spectra were measured in the absence and presence of increasing concentrations of 1b. The compound was dissolved in 100% DMSO and delivered in sequential small doses to a single sample. […] Ratiometric fluorescence readouts are advantageous in that they provide an internal correction for small errors in sample volume which can affect signal intensity. All measurements of the cuvettes were made with a JASCO FP-6500 fluorescence spectrophotometer (JASCO GmbH, Germany).
# The assay was adapted to high-throughput screening formats which enabled KD values to be determined in black small volume assay plates. Briefly, a dilution series of each compound was first prepared in 100% DMSO at 20X the desired final concentration and 1 μL was transferred to the assay plate. Compounds were then mixed with 19 µL of FLiK Buffer (supplemented with 0.01% Triton X-100) containing acrylodan-labeled p38α (100 nM). The final concentration of compound in the dilution series ranged from 0–50 μM (5% v/v DMSO final). Plates were covered with an adhesive aluminum foil and incubated for 30 min at RT prior to measurement of emission intensities at 470 and 520 nm using a Tecan Safire^2 plate reader. […] Binding curves were plotted using the ratio R = I520/I470 to determine the KD.
smiles,measurement,setting,value
"Nc1ccc2c(NC3CC3)nc(-c3ccccc3)nc2c1 [1b, N^4-Cyclopropyl-2-phenyl-4,7-quinazolinediamine]",inhibition of enzymatic activity across kinase panel,[1],does not inhibit enzymatic activity of any of the tested kinases
same,Kd,p38α MAPK insert,~2400 nM and 2400 nM
